Measurements: patent US6620848B2, “Nitric oxide synthase inhibitors” (SmithKline Beecham Corporation, priority 1997, dated 2003)

How the values were obtained:
[1] = target: T1, eNOS (Rattus norvegicus, UniProt Q62600); experiment: Inhibition of eNOS in situ in rat aortic rings (basal tone, intact endothelium); format: cell-based; conditions: rat aortic rings with intact endothelium, threshold phenylephrine
T1 construct: from tissue; host or cells: rat thoracic aorta rings with intact endothelium
Method: (§1) 1. Inhibition of eNOS and iNOS in Rat Aortic Rings
(§2) The inhibition of eNOS and iNOS in situ in rat aortic rings was assessed by measuring the increases in ring tension caused by NO synthase inhibition. For studies of basal tone (reflecting eNOS), rings of thoracic aorta with intact endothelium were prepared as described previously (Rees et al. (1989) Br. J. Pharmol. 96, 418-424) and cumulative concentration curves obtained for the inhibitors in the presence of a threshold concentration of phenylephrine (ED10≈10 nM). For studies of induced smooth muscle tone (reflecting iNOS), endothelium-denuded rings were exposed to LPS (0.1 μ/ml from S. typhosa) in the presence of phenylephrine at approximately ED90 for 6 h as described previously (Rees et al. (1990) Biochem. Biophys. Res. Commun. 173, 541-547). During this time a progressive loss of tone occurred because of iNOS induction. Cumulative concentration curves were then obtained for the inhibitors.

[2] = target: T2, iNOS (Rattus norvegicus, UniProt Q06518); experiment: Inhibition of iNOS in situ in rat aortic rings (induced smooth muscle tone, LPS-exposed endothelium-denuded rings); format: cell-based; conditions: for IC50: endothelium-denuded, LPS 6 h, phenylephrine approx. ED90
T2 construct: endothelium-denuded rings were exposed to LPS; from tissue; host or cells: rat thoracic aorta rings, endothelium-denuded, LPS-exposed
Method: as §1, §2

eNOS % inhib @ 300 μM [1] [%]	selectivity iNOS vs eNOS [2] [fold]	IC50 [2] [µM]	SMILES
53	>500	0.45	CC(=N)NCCSCCC(N)C(=O)O (racemic) [Example 2, (R/S)-[2-(1-iminoethylamino)ethyl]-D,L-homocysteine]
20	>150	6.6	CC(=N)NCCSCC[C@@H](N)C(=O)O [Example 3, (R)-[2-(1-iminoethylamino)ethyl]-D-homocysteine]
